Laboratory results published in patent US20240279236A1, “COMPOUNDS AND METHODS OF TREATING TUBERCULOSIS” (Fimbrion Therapeutics, Inc., priority 2021, published 2024).

The compounds below were run on WT Mtb Erdman strain (assay: Microplate Alamar Blue Assay (MABA), Mtb growth inhibition). Conditions: Mycobacterium tuberculosis, ERDMAN, 168 h, Middlebrook 7H9 media, 7 days at 37° C. in 5% CO2.
Format: cell-based, Mycobacterium tuberculosis
`CCc1nc(N[C@@H]2C[C@H]2c2ccccc2)c2cc(C)sc2n1` (racemic) [Example 1, 2-ethyl-6-methyl-N-((rac-1S,2R)-2-phenylcyclopropyl) thieno[2,3-d]pyrimidin-4-amine] was tested, and the IC50 was 240 nM.
For `CCc1nc(NC[C@@H]2C[C@H]2c2ccccc2)c2cc(C)sc2n1` (racemic) [Example 84, 2-ethyl-6-methyl-N-(((1S,2S)-2-phenylcyclopropyl)methyl)thieno[2,3-d]pyrimidin-4-amine], the IC50 was 7700 nM.
For `CCc1nc(N[C@@H]2C[C@H]2c2ccccc2)c2ccsc2n1` (racemic) [Example 175, 2-ethyl-N-((rac-1R,2S)-2-phenylcyclopropyl) thieno[2,3-d]pyrimidin-4-amine], the IC50 was under 240 nM.
`CCc1nc(N[C@H]2C[C@@H]2c2ccccc2)c2cc(C)sc2n1` [Example 2, 2-ethyl-6-methyl-N-((1S,2R)-2-phenylcyclopropyl) thieno[2,3-d]pyrimidin-4-amine] was tested, and the IC50 was 3100 nM.
`CCc1nc(NCCCc2ccc(C(F)(F)F)cc2)c2cc(C)sc2n1` [Example 3, 2-ethyl-6-methyl-N-(3-(4-(trifluoromethyl)phenyl)propyl)thieno [2,3-d]pyrimidin-4-amine] was tested, and the IC50 was 280 nM.
`CCc1nc(N[C@@H]2C[C@H]2c2ccc(F)c(F)c2)c2cc(C)sc2n1` [Example 4, N-((1R,2S)-2-(3,4-difluorophenyl)cyclopropyl)-2-ethyl-6-methylthieno[2,3-d]pyrimidin-4-amine] gave an IC50 of 300 nM.
`CCc1nc(NC2CC(c3ccccc3)C2)c2cc(C)sc2n1` (centres unmarked) [Example 5, 2-ethyl-6-methyl-N-(3-phenylcyclobutyl) thieno[2,3-d]pyrimidin-4-amine] showed an IC50 of 2100 nM.
For `CCc1nc(N[C@@H]2C[C@H]2c2ccccc2)c2cc(C)sc2n1` [Example 6, 2-ethyl-6-methyl-N-((1R,2S)-2-phenylcyclopropyl) thieno[2,3-d]pyrimidin-4-amine], the IC50 was 440 nM.
For `CCc1nc(NCCc2ccc(Cl)cc2)c2cc(C)sc2n1` [Example 7, N-(4-chlorophenethyl)-2-ethyl-6-methylthieno[2,3-d]pyrimidin-4-amine], the IC50 was 1100 nM.
Compound `CCc1nc(NCCc2cccc(Cl)c2)c2cc(C)sc2n1` [Example 8, N-(3-chlorophenethyl)-2-ethyl-6-methylthieno[2,3-d]pyrimidin-4-amine] has an IC50 of 690 nM.
`CCc1nc(NCCc2ccccc2Cl)c2cc(C)sc2n1` [Example 9, N-(2-chlorophenethyl)-2-ethyl-6-methylthieno[2,3-d]pyrimidin-4-amine] showed an IC50 of 2000 nM.
`CCc1nc(NCCc2ccc3ccccc3c2)c2cc(C)sc2n1` [Example 10, 2-ethyl-6-methyl-N-(2-(naphthalen-2-yl)ethyl)thieno[2,3-d]pyrimidin-4-amine] was tested, and the IC50 was 450 nM.
Compound `CCc1nc(NCCOc2ccccc2)c2cc(C)sc2n1` [Example 11, 2-ethyl-6-methyl-N-(2-phenoxyethyl)thieno [2,3-d]pyrimidin-4-amine] has an IC50 of 2800 nM.
With `CCc1nc(NCCc2ccncc2)c2cc(C)sc2n1` [Example 12, 2-ethyl-6-methyl-N-(2-(pyridin-4-yl)ethyl)thieno[2,3-d]pyrimidin-4-amine] the IC50 was over 10000 nM.
For `CCc1nc(NCCc2cccnc2)c2cc(C)sc2n1` [Example 13, 2-ethyl-6-methyl-N-(2-(pyridin-3-yl)ethyl)thieno[2,3-d]pyrimidin-4-amine], the IC50 was over 10000 nM.
With `CCc1nc(NCCc2ccccn2)c2cc(C)sc2n1` [Example 14, 2-ethyl-6-methyl-N-(2-(pyridin-2-yl)ethyl)thieno[2,3-d]pyrimidin-4-amine] the IC50 was over 10000 nM.
`CCc1nc(NCCc2ccc(OC)cc2)c2cc(C)sc2n1` [Example 15, 2-ethyl-N-(4-methoxyphenethyl)-6-methylthieno[2,3-d]pyrimidin-4-amine] gave an IC50 of 2100 nM.
For `CCc1nc(NCCc2ccc([N+](=O)[O-])cc2)c2cc(C)sc2n1` [Example 16, 2-ethyl-6-methyl-N-(4-nitrophenethyl)thieno [2,3-d]pyrimidin-4-amine], the IC50 was 9000 nM.
In the case of `CCc1nc(N(C)CCCc2ccccc2)c2cc(C)sc2n1` [Example 17, 2-ethyl-N,6-dimethyl-N-(3-phenylpropyl)thieno [2,3-d]pyrimidin-4-amine], the IC50 is reported as 7600 nM.
With `CCc1nc(NCCCc2ccc(OC)cc2)c2cc(C)sc2n1` [Example 18, 2-ethyl-N-(3-(4-methoxyphenyl)propyl)-6-methylthieno[2,3-d]pyrimidin-4-amine] the IC50 was 60 nM.
`CCc1nc(NCCc2ccc(C(F)(F)F)cc2)c2cc(C)sc2n1` [Example 19, 2-ethyl-6-methyl-N-(4-(trifluoromethyl)phenethyl)thieno[2,3-d]pyrimidin-4-amine] was tested, and the IC50 was 2900 nM.
`CCc1nc(NCCc2cccc(C(F)(F)F)c2)c2cc(C)sc2n1` [Example 20, 2-ethyl-6-methyl-N-(3-(trifluoromethyl)phenethyl)thieno[2,3-d]pyrimidin-4-amine] showed an IC50 of 4900 nM.
Work on `CCc1nc(NCCc2ccccc2C(F)(F)F)c2cc(C)sc2n1` [Example 21, 2-ethyl-6-methyl-N-(2-(trifluoromethyl)phenethyl)thieno[2,3-d]pyrimidin-4-amine] yielded an IC50 of over 10000 nM.
`CCc1nc(NCCCc2ccc(OC)c(OC)c2)c2cc(C)sc2n1` [Example 22, N-(3-(3,4-dimethoxyphenyl)propyl)-2-ethyl-6-methylthieno[2,3-d]pyrimidin-4-amine] showed an IC50 of 770 nM.
With `CCc1nc(NC(C)CCc2ccccc2)c2cc(C)sc2n1` (centres unmarked) [Example 23, 2-ethyl-6-methyl-N-(4-phenylbutan-2-yl)thieno[2,3-d]pyrimidin-4-amine] the IC50 was 8300 nM.
For `CCc1nc(NCCCc2ccco2)c2cc(C)sc2n1` [Example 24, 2-ethyl-N-(3-(furan-2-yl)propyl)-6-methylthieno[2,3-d]pyrimidin-4-amine], the IC50 was 1000 nM.
Compound `CCc1nc(NCCCCc2ccccc2)c2cc(C)sc2n1` [Example 25, 2-ethyl-6-methyl-N-(4-phenylbutyl)thieno [2,3-d]pyrimidin-4-amine] has an IC50 of 120 nM.
Work on `CCc1nc(NCCc2ccc(-c3ccccc3)cc2)c2cc(C)sc2n1` [Example 26, N-(2-([1,1′-biphenyl]-4-yl)ethyl)-2-ethyl-6-methylthieno[2,3-d]pyrimidin-4-amine] yielded an IC50 of 1200 nM.
Work on `CCc1nc(NCCCn2cccc2)c2cc(C)sc2n1` [Example 27, N-(3-(1H-pyrrol-1-yl)propyl)-2-ethyl-6-methylthieno[2,3-d]pyrimidin-4-amine] yielded an IC50 of 210 nM.
`Cc1cc2c(N[C@@H]3C[C@H]3c3ccc(F)c(F)c3)nc(C(F)(F)F)nc2s1` [Example 28, N-((1R,2S)-2-(3,4-difluorophenyl)cyclopropyl)-6-methyl-2-(trifluoromethyl) thieno [2,3-d]pyrimidin-4-amine] gave an IC50 of 2100 nM.
Work on `COc1ccc(CCCNc2nc(-c3ccccn3)nc3sccc23)cc1` [Example 29, N-(3-(4-methoxyphenyl)propyl)-2-(pyridin-2-yl)thieno[2,3-d]pyrimidin-4-amine] yielded an IC50 of 2300 nM.
In the case of `FC(F)(F)c1ccc(CCCNc2nc(-c3ccccn3)nc3sccc23)cc1` [Example 30, 2-(pyridin-2-yl)-N-(3-(4-(trifluoromethyl)phenyl)propyl)thieno[2,3-d]pyrimidin-4-amine], the IC50 is reported as 2200 nM.
Compound `Fc1ccc([C@@H]2C[C@H]2Nc2nc(-c3ccccn3)nc3sccc23)cc1F` [Example 31, N-((1R,2S)-2-(3,4-difluorophenyl)cyclopropyl)-2-(pyridin-2-yl)thieno[2,3-d]pyrimidin-4-amine] has an IC50 of 7100 nM.
With `Fc1ccc([C@@H]2C[C@H]2Nc2nc(-c3ccccn3)nc3sc(Cl)cc23)cc1F` [Example 32, 6-chloro-N-((1R,2S)-2-(3,4-difluorophenyl)cyclopropyl)-2-(pyridin-2-yl)thieno[2,3-d]pyrimidin-4-amine] the IC50 was 3500 nM.
In the case of `Cc1cc2c(N[C@@H]3C[C@H]3c3ccc(F)c(F)c3)nc(-c3ccccn3)nc2s1` [Example 33, N-((1R,2S)-2-(3,4-difluorophenyl)cyclopropyl)-6-methyl-2-(pyridin-2-yl)thieno[2,3-d]pyrimidin-4-amine], the IC50 is reported as 4300 nM.
For `CCc1nc(NCCCc2ccc(OC(F)(F)F)cc2)c2cc(C)sc2n1` [Example 34, 2-ethyl-6-methyl-N-(3-(4-(trifluoromethoxy)phenyl)propyl)thieno[2,3-d]pyrimidin-4-amine], the IC50 was 270 nM.
Compound `FC(F)(F)Oc1ccc(CCCNc2nc(-c3ccccn3)nc3sccc23)cc1` [Example 35, 2-(pyridin-2-yl)-N-(3-(4-(trifluoromethoxy)phenyl)propyl)thieno[2,3-d]pyrimidin-4-amine] has an IC50 of 2200 nM.
Work on `Cc1cc2c(NCCCc3ccc(OC(F)(F)F)cc3)nc(C(F)(F)F)nc2s1` [Example 36, 6-methyl-N-(3-(4-(trifluoromethoxy)phenyl)propyl)-2-(trifluoromethyl)thieno [2,3-d]pyrimidin-4-amine] yielded an IC50 of 2100 nM.
`CCc1nc(NCCc2cccc(OC)c2)c2cc(C)sc2n1` [Example 37, 2-ethyl-N-(3-methoxyphenethyl)-6-methylthieno[2,3-d]pyrimidin-4-amine] showed an IC50 of over 7900 nM.
For `Cc1cc2c(N[C@@H]3C[C@H]3c3ccc(F)c(F)c3)nc(-c3ccncn3)nc2s1` [Example 38, N-((1R,2S)-2-(3,4-difluorophenyl)cyclopropyl)-6-methyl-2-(pyrimidin-4-yl)thieno[2,3-d]pyrimidin-4-amine], the IC50 was 2000 nM.
Compound `CCc1nc(NCCc2cccc([N+](=O)[O-])c2)c2cc(C)sc2n1` [Example 39, 2-ethyl-6-methyl-N-(3-nitrophenethyl)thieno [2,3-d]pyrimidin-4-amine] has an IC50 of over 8800 nM.
With `CCc1nc(NCCOc2ccc(OC)cc2)c2cc(C)sc2n1` [Example 40, 2-ethyl-N-(2-(4-methoxyphenoxy)ethyl)-6-methylthieno[2,3-d]pyrimidin-4-amine] the IC50 was 3600 nM.
With `Cc1cc2c(N[C@@H]3C[C@H]3c3ccc(F)c(F)c3)nc(-c3ncccn3)nc2s1` [Example 41, N-((1R,2S)-2-(3,4-difluorophenyl)cyclopropyl)-6-methyl-2-(pyrimidin-2-yl)thieno[2,3-d]pyrimidin-4-amine] the IC50 was over 10000 nM.
Compound `Cc1cc2c(N[C@@H]3C[C@H]3c3ccc(F)c(F)c3)nc(-c3nccs3)nc2s1` [Example 42, N-((1R,2S)-2-(3,4-difluorophenyl)cyclopropyl)-6-methyl-2-(thiazol-2-yl)thieno[2,3-d]pyrimidin-4-amine] has an IC50 of 8100 nM.
